The record followed here is PubChem BioAssay (NCI).

Where “and” joins values, the source holds several entries; their conditions need not be identical. Identical values can stand only once.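 Cultured in 96-well plates, cells were exposed to test compound for 48 hours across five concentrations. GI50 marks 50% less growth. TGI denotes the concentration required for complete inhibition of growth.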 A value given as a limit tells only on which side of the number the result lay.

Some test systems named below: CCRF-CEM leukemia; OVCAR-5 ovarian; HL-60(TB) leukemia; OVCAR-3 ovarian; A498 renal; TK-10 renal; K-562 leukemia; RXF 393 renal; SW-620 colon; SK-MEL-28 melanoma.
What all share (test): growth of human tumour cells (NCI), 48 h

As for `NC(=O)N1N=C2c3ccccc3OC[C@H]2[C@@H]1c1ccccc1`, the TGI with CCRF-CEM leukemia is over 100000 nM; in the test on OVCAR-5 ovarian, 72100 nM; in the test with HL-60(TB) leukemia it was 61700 nM; in the test with OVCAR-3 ovarian, over 76300 nM; in the test on A498 renal, over 81500 nM; with TK-10 renal it was over 100000 nM. The TGI was over 100000 nM with K-562 leukemia, 8700 nM with RXF 393 renal, over 100000 nM with SW-620 colon and over 100000 nM with SK-MEL-28 melanoma.
`COC(=O)C1C(=O)NC2(C)CC1c1ccccc1O2` (stereo not given): the TGI in the test on CCRF-CEM leukemia was over 100000 nM; in the test on OVCAR-5 ovarian, over 100000 nM; with HL-60(TB) leukemia it was over 100000 nM; with OVCAR-3 ovarian, over 10000 nM; in the test with A498 renal, over 100000 nM; with TK-10 renal it was over 100000 nM. Moreover, the TGI in the test on K-562 leukemia, in the test with RXF 393 renal, with SW-620 colon and in the test on SK-MEL-28 melanoma was over 100000 nM each time.
Consider `CC(C)(C)c1cnc(CSc2cnc(NC(=O)C3CCNCC3)s2)o1`, for which the GI50 is 251 nM and 168 nM with CCRF-CEM leukemia; 241 nM and 124 nM in the test on OVCAR-5 ovarian; 93.7 nM and 79.1 nM in the test on HL-60(TB) leukemia; 223 nM and 181 nM in the test on OVCAR-3 ovarian; 223 nM and 230 nM with A498 renal; 620 nM and 794 nM in the test on TK-10 renal. Moreover, the GI50 in the test on K-562 leukemia was 337 nM and 229 nM; with RXF 393 renal, 124 nM and 157 nM; in the test on SW-620 colon, 256 nM and 274 nM; in the test on SK-MEL-28 melanoma, 166 nM and 221 nM. For the same compound, the TGI with CCRF-CEM leukemia is over 100000 nM; in the test on OVCAR-5 ovarian, over 100000 nM; with HL-60(TB) leukemia, 976 nM and 461 nM; with OVCAR-3 ovarian it was 3610 nM and > 2950 nM; in the test with A498 renal, 598 nM and 714 nM; in the test on TK-10 renal, 5230 nM and > 10000 nM. The TGI with K-562 leukemia is over 53200 nM; with RXF 393 renal, 354 nM and 509 nM; with SW-620 colon, over 100000 nM; in the test on SK-MEL-28 melanoma, 523 nM and 1060 nM.
As to `Cc1nc(Nc2ccc(Cl)c(Cl)c2)sc1C(/C=C/c1ccc2c(c1)OCO2)=N/Nc1ccc([N+](=O)[O-])cc1[N+](=O)[O-]`, the TGI in the test on CCRF-CEM leukemia is over 100000 nM; in the test on OVCAR-5 ovarian, over 100000 nM; with HL-60(TB) leukemia it was over 100000 nM; with OVCAR-3 ovarian, over 100000 nM; in the test on A498 renal, over 100000 nM; in the test on TK-10 renal, over 94400 nM. Further, the TGI with K-562 leukemia is over 100000 nM; in the test with RXF 393 renal, 67200 nM; with SW-620 colon, over 100000 nM; with SK-MEL-28 melanoma it was over 100000 nM.
